Source: patent US10179138B2, “Pharmaceutical composition comprising 7β-hydroxycholesterol intravenous administration” (Immunopharm AG, priority 2016, dated 2019)
Where two headings read alike, the source gives them in different places.

Tests used:
[1] = format: physicochemical; details: for decomposition of 7β-hydroxycholesterol after sterilization: sterilization at 120° C.
Protocol: The solution has been stored in glass vials.
A readily prepared infusion solution (on the basis of physiological saline solution) has been stored at room temperature (<25° C.) for 3 months.

[2] = format: physicochemical
Excerpt: However, if you want to dilute the solution of 7β-hydroxycholesterol/solvent in an aqueous liquid, e.g. for the provision of an infusion solution, the substance flocculates. Thus, the inventors use a solubilizing agent in order to maintain 7β-hydroxycholesterol in the later infusion solution in solution.

[3] = cited from earlier work
[4] = cited from earlier work; for behaviour in aqueous solution over time: after several hours
[5] = test system: human cell lines of colon carcinoma; details: cited from earlier work
[6] = readily prepared infusion solution (physiological saline), room temperature (<25° C.), 3 months

Compound | decomposition of 7β-hydroxycholesterol on storage ([1]; concentrate stored at 40° C. for 3 months in glass vials) | decomposition of 7β-hydroxycholesterol after sterilization ([1]; concentrate) | decomposition of 7β-hydroxycholesterol after sterilization ([1]; readily prepared infusion solution (physiological saline solution)) | appearance / flocculation of solution on storage [1, 6] | decrease of content of 7β-hydroxycholesterol by HPLC after storage [1, 6] | behaviour on dilution of solvent solution in aqueous liquid [2] | solubility in water soluble organic solvent [2] | stability of solution in water soluble organic solvent [2] | solubility in water [3] | behaviour in aqueous solution over time [4] | stability in aqueous solution [4] | water solubility [4] | induction of apoptosis [5]
CC(C)CCC[C@@H](C)[C@H]1CC[C@H]2[C@@H]3[C@@H](O)C=C4C[C@@H](O)CC[C@]4(C)[C@H]3CC[C@]12C [7β-hydroxycholesterol] | did not show a decomposition | remained stable | remained stable | remained clear, there was no flocculation | could not be determined | flocculates | excellent solubility | remain stable for years | insoluble in water | – | – | – | –
CC(C)CCC[C@@H](C)[C@H]1CC[C@H]2[C@@H]3[C@@H](OC(=O)CCC(=O)[O-])C=C4C[C@@H](OC(=O)CCC(=O)[O-])CC[C@]4(C)[C@H]3CC[C@]12C.[Na+].[Na+] [7β-hydroxycholesteryl-bishemisuccinate-disodium] | – | – | – | – | – | – | – | – | – | starts to decompose and to flocculate | instable | water soluble | induction of apoptosis
hydroxycholesteryl-bishemisuccinate-diethanolamine | – | – | – | – | – | – | – | – | – | starts to decompose and to flocculate | instable | – | induction of apoptosis
